Measurements: ChEMBL document CHEMBL1255239, “Increases in SLT2 expression and chitin content are associated with incomplete killing of Candida glabrata by caspofungin” (2008)
Calls of active or inactive are those of the source. No cut-off for these calls is given here.

Assays:
Nakaseomyces glabratus [1] = assay: Increase in CHS3 gene expression in slt2 deficient Candida glabrata 200989 at 0.125 to 16 ug/ml after 180 mins by RT-PCR analysis; format: functional, organism-based
Nakaseomyces glabratus [2] = assay: Antifungal activity against Candida glabrata 200989 assessed as log reduction in bacterial count at 0.125 to 16 ug/ml by time-kill analysis; format: functional
Nakaseomyces glabratus [3] = assay: Antifungal activity against slt2 deficient Candida glabrata 200989 assessed as log reduction in bacterial count at 0.125 ug/ml by time-kill analysis; format: functional
Nakaseomyces glabratus [4] = assay: Antifungal activity against slt2 deficient Candida glabrata 200989 assessed as log reduction in bacterial count at 1 ug/ml by time-kill analysis; format: functional
Nakaseomyces glabratus [5] = assay: Increase in CHS3 gene expression in Candida glabrata 200989 at 0.125 to 16 ug/ml after 180 mins by RT-PCR analysis relative to control; format: functional
Nakaseomyces glabratus [6] = assay: Antifungal activity against Candida glabrata 200989 at 0.125 to 16 ug/ml by time-kill analysis; format: functional, organism-based
Nakaseomyces glabratus [7] = assay: Increase in slt2 gene expression in Candida glabrata 200989 at 0.125 to 16 ug/ml after 12 hrs by RT-PCR analysis; format: functional, organism-based
Nakaseomyces glabratus [8] = assay: Increase in chitin content in slt2 deficient Candida glabrata 200989 at 0.125 to 16 ug/ml after 12 hrs; format: functional, organism-based
Nakaseomyces glabratus [9] = assay: Increase in slt2 gene expression in Candida glabrata 200989 at 0.125 to 16 ug/ml after 180 mins by RT-PCR analysis relative to control; format: functional
Nakaseomyces glabratus [10] = assay: Antifungal activity against Candida glabrata 200989 at 0 to 32 ug/ml by XTT […] assay; format: functional, organism-based
Nakaseomyces glabratus [11] = assay: Antifungal activity against slt2 deficient Candida glabrata 200989 assessed as log reduction in bacterial count at 16 ug/ml by time-kill analysis; format: functional
Nakaseomyces glabratus [12] = assay: Increase in slt2 gene expression in Candida glabrata 200989 at 0.125 to 16 ug/ml after 10 mins by RT-PCR analysis relative to control; format: functional
Nakaseomyces glabratus [13] = assay: Increase in chitin content in Candida glabrata 200989 at 0.125 to 16 ug/ml after 12 hrs relative to control; format: functional

## CC[C@H](C)C[C@H](C)CCCCCCCCC(=O)N[C@H]1C[C@@H](O)[C@@H](NCCN)NC(=O)[C@@H]2[C@@H](O)CCN2C(=O)[C@H]([C@H](O)CCN)NC(=O)[C@H]([C@H](O)[C@@H](O)c2ccc(O)cc2)NC(=O)[C@@H]2C[C@@H](O)CN2C(=O)[C@H]([C@@H](C)O)NC1=O [CASPOFUNGIN]
Nakaseomyces glabratus [1]
  Activity: inactive
Nakaseomyces glabratus [2]
  log10cfu: 1.6 /ml
Nakaseomyces glabratus [3]
  log10cfu: 2.6 /ml
Nakaseomyces glabratus [4]
  log10cfu: 4.2 /ml
Nakaseomyces glabratus [5]
  fold change (FC): >2
Nakaseomyces glabratus [6]
  Activity: inactive
Nakaseomyces glabratus [7]
  Activity: inactive
Nakaseomyces glabratus [8]
  Activity: inactive
Nakaseomyces glabratus [9]
  fold change (FC): >=3.8
Nakaseomyces glabratus [10]
  Activity: inactive
Nakaseomyces glabratus [11]
  log10cfu: 4.2 /ml
Nakaseomyces glabratus [12]
  fold change (FC): >2
Nakaseomyces glabratus [13]
  fold change (FC): >3.5
